Like-named read-outs stand apart in the source and are kept apart here.
Experiments:
Zymoseptoria tritici = test: Leaf Blotch of Wheat fungicidal activity (SEPTTR); assay type: in vivo; settings: Low Volume Cereal Activity at 121.5 g/Ha
Leptosphaeria nodorum = test: Wheat Glume Blotch fungicidal activity (LEPTNO); assay type: in vivo; settings: Parastagonospora nodorum, 24 h, high volume, 1 Day Protectant, read-out: LEPTNO % Control rating
Description: All fungicides were evaluated using the aforementioned method for their activity vs. all target diseases, unless stated otherwise. Wheat leaf blotch and brown rust activity were also evaluated using track spray applications, in which case the fungicides were formulated as EC formulations, containing 0.1% Trycol 5941 in the spray solutions. Wheat plants (variety Yuma) were grown from seed in a greenhouse in 50% mineral soil/50% soil-less Metro mix until the first leaf was fully emerged, with 7-10 seedlings per pot. These plants were inoculated with an aqueous spore suspension of Zymoseptoria tritici either prior to or after fungicide treatments. After inoculation the plants were kept in 100% relative humidity (one day in a dark dew chamber followed by two to three days in a lighted dew chamber at 20° C.) to permit spores to germinate and infect the leaf. The plants were then transferred to a greenhouse set at 20° C. for disease to develop. When disease symptoms were fully expressed on the 1st leaves of untreated plants, infection levels were assessed on a scale of 0 to 100 percent disease severity. Percent disease control was calculated using the ratio of disease severity on treated plants relative to untreated plants. Wheat plants (variety Yuma) were grown from seed in a greenhouse in 50% mineral soil/50% soil-less Metro mix until the first leaf was fully emerged, with 7-10 seedlings per pot. These plants were inoculated with an aqueous spore suspension of Leptosphaeria nodorum 24 hr after fungicide treatments. After inoculation the plants were kept in 100% relative humidity (one day in a dark dew chamber followed by two days in a lighted dew chamber at 20° C.) to permit spores to germinate and infect the leaf. The plants were then transferred to a greenhouse set at 20° C. for disease to develop. Fungicide formulation, application and disease assessment followed the procedures as described in the Example A.

Cercospora beticola = test: Leaf Spot of Sugar Beets fungicidal activity (CERCBE); assay type: in vivo; settings: 24 h, sugar beet, high volume, 1 Day Protectant, read-out: CERCBE % Control rating
Description: All fungicides were evaluated using the aforementioned method for their activity vs. all target diseases, unless stated otherwise. Wheat leaf blotch and brown rust activity were also evaluated using track spray applications, in which case the fungicides were formulated as EC formulations, containing 0.1% Trycol 5941 in the spray solutions. Wheat plants (variety Yuma) were grown from seed in a greenhouse in 50% mineral soil/50% soil-less Metro mix until the first leaf was fully emerged, with 7-10 seedlings per pot. These plants were inoculated with an aqueous spore suspension of Zymoseptoria tritici either prior to or after fungicide treatments. After inoculation the plants were kept in 100% relative humidity (one day in a dark dew chamber followed by two to three days in a lighted dew chamber at 20° C.) to permit spores to germinate and infect the leaf. The plants were then transferred to a greenhouse set at 20° C. for disease to develop. When disease symptoms were fully expressed on the 1st leaves of untreated plants, infection levels were assessed on a scale of 0 to 100 percent disease severity. Percent disease control was calculated using the ratio of disease severity on treated plants relative to untreated plants. Sugar beet plants (variety HH88) were grown in soil-less Metro mix and trimmed regularly to maintain a uniform plant size prior to test. Plants were inoculated with a spore suspension 24 hr after fungicide treatments. Inoculated plants were kept in a dew chamber at 22° C. for 48 hr then incubated in a greenhouse set at 24° C. under a clear plastic hood with bottom ventilation until disease symptoms were fully expressed. Fungicide formulation, application and disease assessment on the sprayed leaves followed the procedures as described in the Example A.

Rhyncosporium secalis = test: Barley Scald fungicidal activity (RHYNSE); assay type: in vivo; settings: Hordeum vulgare, 24 h, high volume, 1 Day Protectant, read-out: RHYNSE % Control rating
Description: All fungicides were evaluated using the aforementioned method for their activity vs. all target diseases, unless stated otherwise. Wheat leaf blotch and brown rust activity were also evaluated using track spray applications, in which case the fungicides were formulated as EC formulations, containing 0.1% Trycol 5941 in the spray solutions. Wheat plants (variety Yuma) were grown from seed in a greenhouse in 50% mineral soil/50% soil-less Metro mix until the first leaf was fully emerged, with 7-10 seedlings per pot. These plants were inoculated with an aqueous spore suspension of Zymoseptoria tritici either prior to or after fungicide treatments. After inoculation the plants were kept in 100% relative humidity (one day in a dark dew chamber followed by two to three days in a lighted dew chamber at 20° C.) to permit spores to germinate and infect the leaf. The plants were then transferred to a greenhouse set at 20° C. for disease to develop. When disease symptoms were fully expressed on the 1st leaves of untreated plants, infection levels were assessed on a scale of 0 to 100 percent disease severity. Percent disease control was calculated using the ratio of disease severity on treated plants relative to untreated plants. Barley seedlings (variety Harrington) were propagated in soil-less Metro mix, with each pot having 8 to 12 plants, and used in the test when first leaf was fully emerged. Test plants were inoculated by an aqueous spore suspension of Rhyncosporium secalis 24 hr after fungicide treatments. After inoculation the plants were kept in a dew room at 22° C. with 100% relative humidity for 48 hr. The plants were then transferred to a greenhouse set at 20° C. for disease to develop. Fungicide formulation, application and disease assessment on the sprayed leaves followed the procedures as described in the Example A.

Pyricularia oryzae = test: whole plant or invertebrate; assay type: in vivo; settings: 24 h, read-out: PYRIOR % Control rating
Phakopsora pachyrhizi = test: Asian Soybean Rust fungicidal activity (PHAKPA); settings: Phakopsora pachyrhizi, in Glycine max
[1] = 24 h, 1 Day Protectant, read-out: SEPTTR 1DP (Wheat Leaf Blotch, 1 Day Protectant)
[2] = 72 h, 3 Day Curative, read-out: SEPTTR 3DC (Wheat Leaf Blotch, 3 Day Curative)
[3] = 24 h, read-out: PHAKPA 1DP % Control rating, soybean, high volume, 25 ppm, 1 Day Protectant
[4] = 72 h, read-out: PHAKPA 3DC % Control rating, soybean, high volume, 25 ppm, 3 Day Curative

Compound	pest or weed control at 121.5 g/ha (Zymoseptoria tritici; [1])	pest or weed control at 121.5 g/ha (Zymoseptoria tritici; [2])	pest or weed control at 100 ppm (Leptosphaeria nodorum)	pest or weed control at 100 ppm (Cercospora beticola)	pest or weed control at 100 ppm (Rhyncosporium secalis)	pest or weed control at 100 ppm (Pyricularia oryzae)	pest or weed control at 25 ppm (Phakopsora pachyrhizi; [3])	pest or weed control at 25 ppm (Phakopsora pachyrhizi; [4])
COc1ccnc(C(=O)N[C@@H](C)C(=O)O[C@@H](C)[C@H](Oc2ccccc2)c2ccccc2)c1OCOC(C)=O [Example 183]	> 80%	> 80%	> 80%	> 80%	> 80%	> 80%	< 80%	< 80%
COc1ccnc(C(=O)N[C@@H](C)C(=O)O[C@@H](C)[C@H](Oc2cccc(F)c2)c2ccccc2)c1OCOC(C)=O [Example 187]	> 80%	> 80%	> 80%	> 80%	> 80%	> 80%	> 80%	< 80%
COc1ccnc(C(=O)N[C@@H](C)C(=O)O[C@@H](C)[C@H](Oc2cccc(Cl)c2)c2ccccc2)c1OCOC(C)=O [Example 202]	> 80%	> 80%	< 80%	< 80%	< 0%	< 80%	> 80%	< 80%
COc1ccnc(C(=O)N[C@@H](C)C(=O)O[C@@H](C)[C@H](Oc2ccccc2Cl)c2ccccc2)c1OC(C)=O [Example 205]	> 80%	> 80%	> 80%	> 80%	< 80%	> 80%	< 80%	< 80%
COc1ccnc(C(=O)N[C@@H](C)C(=O)O[C@@H](C)[C@H](Oc2cc(F)cc(Cl)c2)c2ccccc2)c1OC(C)=O [Example 207]	> 80%	> 80%	> 80%	> 80%	> 80%	> 80%	< 80%	< 80%
COc1ccnc(C(=O)N[C@@H](C)C(=O)O[C@@H](C)[C@H](Oc2ccc(F)cc2)c2ccccc2)c1OC(C)=O [Example 235]	> 80%	> 80%	> 80%	> 80%	> 80%	> 80%	< 80%	< 80%
COc1ccnc(C(=O)N[C@@H](C)C(=O)O[C@@H](C)C(Oc2ccc(F)cc2)c2ccccc2)c1OC(C)=O (stereo partly shown) [Example 236]	> 80%	> 80%	> 80%	> 80%	> 80%	> 80%	> 80%	< 0%
COc1ccnc(C(=O)N[C@@H](C)C(=O)O[C@@H](C)[C@H](Oc2ccc(F)cc2)c2ccccc2)c1OCOC(C)=O [Example 237]	> 80%	> 80%	> 80%	> 80%	> 80%	> 80%	< 80%	< 80%
COc1ccnc(C(=O)N[C@@H](C)C(=O)O[C@@H](C)[C@H](Oc2ccccc2)c2ccc(C)cc2)c1OCOC(C)=O [Example 252]	> 80%	> 80%	> 80%	> 80%	> 80%	> 80%		
COc1ccnc(C(=O)N[C@@H](C)C(=O)O[C@@H](C)[C@H](Oc2ccccc2)c2ccc3ccccc3c2)c1OCOC(C)=O [Example 263]	> 80%	> 80%	> 80%	> 80%	> 80%	> 80%		
